The values that follow come from ChEMBL document CHEMBL3797052 (Eur J Med Chem, 2016).

Common to all, as to format: functional
Experiment [1] is described as follows: Cytotoxicity against human HCT116 cells assessed as growth inhibition at 10 uM after 2 days by MTT assay. The note with it: HCT-116, 48 h, read-out: GI. (In general: Tetrazolium dyes change colour on reduction, which living cells bring about.)
Experiment [2] is described as follows: Cytotoxicity against human SKBR3 cells assessed as growth inhibition at 100 uM after 2 days by MTT assay. As to conditions: SK-BR-3, 48 h, read-out: GI.
Experiment [3] is described as follows: Cytotoxicity against human SKBR3 cells assessed as growth inhibition at 10 uM after 2 days by MTT assay. As to conditions: SK-BR-3, 48 h, read-out: GI.
Experiment [4] in a line: Cytotoxicity against human HCT116 cells assessed as growth inhibition at 100 uM after 2 days by MTT assay. The note with it: HCT-116, 48 h, read-out: GI.

Take `CNC(=O)c1cc(Oc2ccc3nc(NC(=O)Nc4ccc(Cl)cc4Cl)sc3c2)ccn1`: the results for the inhibition of growth at 10 µM in experiment [1] and in experiment [3] were 32.2% and 22.3%, respectively. In addition, the inhibition of growth at 100 µM in experiment [2] was determined as 91.7%; in experiment [4], 93.6%.
As to `CNC(=O)c1cc(Oc2ccc3nc(NC(=O)Nc4ccc(F)cc4)sc3c2)ccn1`, the inhibition of growth at 10 µM in experiment [1] worked out at 12.2%; in experiment [3], 14.2%. The inhibition of growth at 100 µM in experiment [2] is 72.9%; in experiment [4] it was 83.8%.
`CNC(=O)c1cc(Oc2ccc3nc(NC(=O)Nc4ccc(N5CCOCC5)cc4)sc3c2)ccn1`: the inhibition of growth at 10 µM is 1.58% in experiment [1] and 14.1% in experiment [3]. Further, the figures for the inhibition of growth at 100 µM in experiment [2] and in experiment [4] were 77.7% and 73.3%, respectively.
Consider `CNC(=O)c1cc(Oc2ccc3nc(NC(=O)Nc4cc(C(F)(F)F)ccc4Cl)sc3c2)ccn1`, for which the figures for the inhibition of growth at 10 µM in experiment [1] and in experiment [3] were 16.3% and 28.3%, respectively. The values for the inhibition of growth at 100 µM in experiment [2] and in experiment [4] were 89.1% and 90%, respectively.
With `CNC(=O)c1cc(Oc2ccc3nc(NC(=O)c4cc(Cl)cc(Cl)c4)sc3c2)ccn1`, the inhibition of growth at 10 µM was determined as 13.4% in experiment [1] and 9.62% in experiment [3]. For the same compound, the inhibition of growth at 100 µM in experiment [2] turned out to be 84.2%; in experiment [4], 15.8%.
On the same counts, the results for `CNC(=O)c1cc(Oc2ccc3nc(NC(=O)c4ccc(Cl)cc4)sc3c2)ccn1` are 27.5%, 18.9%, 83% and 80.5%.
On the same counts, the results for `CNC(=O)c1cc(Oc2ccc3nc(NC(=O)Nc4ccc(Br)cc4)sc3c2)ccn1` are 12.1%, 26.7%, 69.2% and 80%.
Regarding `CNC(=O)c1cc(Oc2ccc3nc(NC(=O)Nc4ccc(N5CCN(C)CC5)cc4)sc3c2)ccn1`, the figures for the inhibition of growth at 10 µM in experiment [1] and in experiment [3] were 24.6% and 30.5%, respectively. Further, the values for the inhibition of growth at 100 µM in experiment [2] and in experiment [4] were 86.4% and 95%, respectively.
For the compound `CNC(=O)c1cc(Oc2ccc3nc(NC(=O)c4ccc(Cl)cc4Cl)sc3c2)ccn1`, the inhibition of growth at 10 µM was 15.1% in experiment [1] and 14% in experiment [3]. Further, the values for the inhibition of growth at 100 µM in experiment [2] and in experiment [4] were 81% and 64.4%, respectively.
For the compound `CNC(=O)c1cc(Oc2ccc3nc(NC(=O)c4cc5ccccc5o4)sc3c2)ccn1`, the inhibition of growth at 10 µM in experiment [1] amounted to 9.15%; in experiment [3], 54.4%. Also, the inhibition of growth at 100 µM in experiment [2] was 52.4%; in experiment [4], 77.5%.
